Laboratory results from BindingDB's records for doi:10.1021/acs.jmedchem.0c00988 (Rapt Therapeutics, 2020).

Legend:
[1] = Antagonist activity at CCR4 in human CCRF-CEM cells assessed as inhibition of CCL22-mediated chemotaxis preincubated for 30 mins followed by CCL22 addition and measured after 60 mins in presence of 100% human serum by CellTiter-Glo assay
[2] = Antagonist activity at CCR4 in human Treg cells assessed as inhibition of CCL22-mediated chemotaxis preincubated for 30 mins followed by CCL22 addition and measured after 60 mins in presence of 100% human serum by CellTiter-Glo assay
[3] = Antagonist activity at CCR4 in mouse Treg cells assessed as inhibition of CCL22-mediated chemotaxis preincubated for 30 mins followed by CCL22 addition and measured after 60 mins in presence of 100% mouse serum by CellTiter-Glo assay
[4] = Antagonist activity at CCR4 in human CCRF-CEM cells assessed as inhibition of CCL17-mediated chemotaxis preincubated for 30 mins followed by CCL17 addition and measured after 60 mins in presence of 100% human serum by CellTiter-Glo assay

Row | Compound | IC50 [1] | other results
1 | Cc1nn([C@H](C)c2ccc(Cl)cc2Cl)c2nc(N3CC([C@H]4CCCN(CCS(N)(=O)=O)C4)C3)cnc12 | 717 nM | –
2 | Cc1nn([C@H](C)c2ccc(Cl)cc2Cl)c2nc(N3CC([C@H]4CCCN(CCS(C)(=O)=O)C4)C3)cnc12 | 575 nM | –
3 | Cc1nn([C@H](C)c2ccc(Cl)cc2Cl)c2nc(N3CC([C@H]4CCCN(CCCC(=O)O)C4)C3)cnc12 | 559 nM | –
4 | C[C@H](c1ccc(Cl)cc1Cl)n1nc(C#N)c2ncc(N3CC([C@H]4CCCN(CCC(=O)O)C4)C3)nc21 | 409 nM | –
5 | C[C@H](c1ccc(Cl)cc1Cl)n1nc(C#N)c2ncc(N3CC([C@H]4CCCN(CC(=O)O)C4)C3)nc21 | 775 nM | –
6 | C[C@H](c1ccc(Cl)cc1Cl)n1nc(C#N)c2ncc(N3CC([C@H]4CCCN(CCC#N)C4)C3)nc21 | 523 nM | –
7 | C[C@H](c1ccc(Cl)cc1Cl)n1nc(C#N)c2ncc(N3CC([C@H]4CCCN(CCC(F)(F)F)C4)C3)nc21 | 1500 nM | –
8 | CNC(=O)c1nn([C@H](C)c2ccc(Cl)cc2Cl)c2nc(N3CC([C@H]4CCCN(CCO)C4)C3)cnc12 | 446 nM | –
9 | C[C@H](c1ccc(Cl)cc1Cl)n1nc(C(=O)N(C)C)c2ncc(N3CC([C@H]4CCCN(CCO)C4)C3)nc21 | 379 nM | –

Now from value to compound, other results behind:

Row | IC50 [1] | Compound | other results
10 | 136 nM | Cc1nn([C@H](C)c2ccc(Cl)cc2Cl)c2nc(N3CC([C@H]4CCCN(CCNS(C)(=O)=O)C4)C3)cnc12 | –
11 | 115 nM | Cc1nn([C@H](C)c2ccc(Cl)cc2Cl)c2nc(N3CC([C@H]4CCCN(CCNS(=O)(=O)C(C)C)C4)C3)cnc12 | –
12 | 259 nM | Cc1nn([C@H](C)c2ccc(Cl)cc2Cl)c2nc(N3CC([C@H]4CCCN(CCCS(C)(=O)=O)C4)C3)cnc12 | –
13 | 370 nM | Cc1nn([C@H](C)c2ccc(Cl)cc2Cl)c2nc(N3CC([C@H]4CCCN(CCC(=O)O)C4)C3)cnc12 | –
14 | 247 nM | Cc1nn([C@H](C)c2ccc(Cl)cc2Cl)c2nc(N3CC([C@H]4CCCN(CCC(N)=O)C4)C3)cnc12 | –
15 | 40 nM | CC(=O)NCCN1CCC[C@H](C2CN(c3cnc4c(C)nn([C@H](C)c5ccc(Cl)cc5Cl)c4n3)C2)C1 | –
16 | 59 nM | Cc1nn([C@H](C)c2ccc(Cl)cc2Cl)c2nc(N3CC([C@H]4CCCN(CCNC(=O)C(C)C)C4)C3)cnc12 | –
17 | 133 nM | COC(=O)NCCN1CCC[C@H](C2CN(c3cnc4c(C)nn([C@H](C)c5ccc(Cl)cc5Cl)c4n3)C2)C1 | –
18 | 97 nM | C[C@H](c1ccc(Cl)cc1Cl)n1nc(C#N)c2ncc(N3CC([C@H]4CCCN(Cc5cnc[nH]5)C4)C3)nc21 | –
19 | 109 nM | Cc1nn([C@H](C)c2ccc(Cl)cc2Cl)c2nc(N3CC([C@H]4CCCN(CCCO)C4)C3)cnc12 | –
20 | 74 nM | Cc1nn([C@H](C)c2ccc(Cl)cc2Cl)c2nc(N3CC([C@H]4CCCN(CCO)C4)C3)cnc12 | –
21 | 50 nM | C[C@H](c1ccc(Cl)cc1Cl)n1nc(C#N)c2ncc(N3CC([C@H]4CCCN(CCO)C4)C3)nc21 | IC50 [2]: 33 nM; IC50 [3]: 39 nM; IC50 [4]: 64 nM
22 | 36 nM | C[C@H](c1ccc(Cl)cc1Cl)n1nc(C(N)=O)c2ncc(N3CC([C@H]4CCCN(CCO)C4)C3)nc21 | –
